{"source": "patent US10517867B2", "about": "“Posaconazole derivative, pharmaceutical composition and use thereof” (priority 2016, dated 2019)"}
{"experiment": "Determination of solubility in deionized water (HPLC, external standard)", "details": "25 °C, water, thermodynamic from solid", "units": {"solubility at 30 min": "mg/mL"}}
{"smiles": "CC[C@@H]([C@H](C)O)n1ncn(-c2ccc(N3CCN(c4ccc(OC[C@@H]5CO[C@@](Cn6c[n+](C(C)OC(=O)SC[C@H](N)C(=O)O)cn6)(c6ccc(F)cc6F)C5)cc4)CC3)cc2)c1=O", "note": "(stereo partly shown) [ST0030]", "solubility at 30 min": 21.8}
{"smiles": "CC[C@@H]([C@H](C)O)n1ncn(-c2ccc(N3CCN(c4ccc(OC[C@@H]5CO[C@@](Cn6c[n+](C(C)OC(=O)N(C)c7ncccc7CN)cn6)(c6ccc(F)cc6F)C5)cc4)CC3)cc2)c1=O", "note": "(stereo partly shown) [ST0032]", "solubility at 30 min": 30.5}
{"smiles": "CC[C@@H]([C@H](C)O)n1ncn(-c2ccc(N3CCN(c4ccc(OC[C@@H]5CO[C@@](Cn6c[n+](C(C)OC(=O)N(C)c7ncccc7CNC)cn6)(c6ccc(F)cc6F)C5)cc4)CC3)cc2)c1=O", "note": "(stereo partly shown) [ST0037]", "solubility at 30 min": "> 50"}
{"smiles": "CC[C@@H](C(C)OC(=O)OC(C)OC(=O)CN(C)S(=O)(=O)[O-])n1ncn(-c2ccc(N3CCN(c4ccc(OC[C@@H]5CO[C@@](Cn6cncn6)(c6ccc(F)cc6F)C5)cc4)CC3)cc2)c1=O.[Na+]", "note": "(stereo partly shown) [ST0056]", "solubility at 30 min": "> 50"}
{"smiles": "CC[C@@H]([C@H](C)OC(=O)OCCOP(=O)([O-])[O-])n1ncn(-c2ccc(N3CCN(c4ccc(OC[C@@H]5CO[C@@](Cn6cncn6)(c6ccc(F)cc6F)C5)cc4)CC3)cc2)c1=O.[Na+].[Na+]", "note": "[ST0059]", "solubility at 30 min": "> 50"}
{"smiles": "CC[C@@H]([C@H](C)OC(=O)OCCOCCOCCOP(=O)([O-])[O-])n1ncn(-c2ccc(N3CCN(c4ccc(OC[C@@H]5CO[C@@](Cn6cncn6)(c6ccc(F)cc6F)C5)cc4)CC3)cc2)c1=O.[Na+].[Na+]", "note": "[ST0061]", "solubility at 30 min": "> 50"}
{"smiles": "CC[C@@H]([C@H](C)OC(=O)OC(C)OC(=O)CCCOP(=O)([O-])[O-])n1ncn(-c2ccc(N3CCN(c4ccc(OC[C@@H]5CO[C@@](Cn6cncn6)(c6ccc(F)cc6F)C5)cc4)CC3)cc2)c1=O.[Na+].[Na+]", "note": "(stereo partly shown) [ST0062]", "solubility at 30 min": "> 50"}
{"smiles": "CC[C@@H]([C@H](C)OC(=O)OC(C)OC(=O)COP(=O)([O-])[O-])n1ncn(-c2ccc(N3CCN(c4ccc(OC[C@@H]5CO[C@@](Cn6cncn6)(c6ccc(F)cc6F)C5)cc4)CC3)cc2)c1=O.[Na+].[Na+]", "note": "(stereo partly shown) [ST0065]", "solubility at 30 min": "> 50"}
{"smiles": "CC[C@@H](C(C)OC(=O)OC(C)OC(=O)CCCCOP(=O)([O-])[O-])n1ncn(-c2ccc(N3CCN(c4ccc(OC[C@@H]5CO[C@@](Cn6cncn6)(c6ccc(F)cc6F)C5)cc4)CC3)cc2)c1=O.[Na+].[Na+]", "note": "(stereo partly shown) [ST0068]", "solubility at 30 min": "> 50"}
{"smiles": "CC[C@@H](C(C)OC(=O)OC(C)OC(=O)CCCCCCCOP(=O)([O-])[O-])n1ncn(-c2ccc(N3CCN(c4ccc(OC[C@@H]5CO[C@@](Cn6cncn6)(c6ccc(F)cc6F)C5)cc4)CC3)cc2)c1=O.[Na+].[Na+]", "note": "(stereo partly shown) [ST0069]", "solubility at 30 min": 43.7}
{"smiles": "CC[C@@H](C(C)OC(=O)OC(C)OC(=O)CCCCCCCCOP(=O)([O-])[O-])n1ncn(-c2ccc(N3CCN(c4ccc(OC[C@@H]5CO[C@@](Cn6cncn6)(c6ccc(F)cc6F)C5)cc4)CC3)cc2)c1=O.[Na+].[Na+]", "note": "(stereo partly shown) [ST0071]", "solubility at 30 min": 23.4}
{"smiles": "CC[C@@H](C(C)OC(=O)OC(C)OC(=O)COS(=O)(=O)[O-])n1ncn(-c2ccc(N3CCN(c4ccc(OC[C@@H]5CO[C@@](Cn6cncn6)(c6ccc(F)cc6F)C5)cc4)CC3)cc2)c1=O.[Na+]", "note": "(stereo partly shown) [ST0075]", "solubility at 30 min": "> 50"}
{"smiles": "CC[C@@H](C(C)OC(=O)OC(C)OC(=O)CCOS(=O)(=O)[O-])n1ncn(-c2ccc(N3CCN(c4ccc(OC[C@@H]5CO[C@@](Cn6cncn6)(c6ccc(F)cc6F)C5)cc4)CC3)cc2)c1=O.[Na+]", "note": "(stereo partly shown) [ST0076]", "solubility at 30 min": "> 50"}
{"smiles": "CC[C@@H]([C@H](C)OC(=O)OC(C)OC(=O)CCCCCCOS(=O)(=O)[O-])n1ncn(-c2ccc(N3CCN(c4ccc(OC[C@@H]5CO[C@@](Cn6cncn6)(c6ccc(F)cc6F)C5)cc4)CC3)cc2)c1=O.[Na+]", "note": "(stereo partly shown) [ST0081]", "solubility at 30 min": "> 50"}
{"smiles": "CC[C@@H]([C@H](C)OC(=O)OC(C)OC(=O)C(O)COP(=O)([O-])[O-])n1ncn(-c2ccc(N3CCN(c4ccc(OC[C@@H]5CO[C@@](Cn6cncn6)(c6ccc(F)cc6F)C5)cc4)CC3)cc2)c1=O.[Na+].[Na+]", "note": "(stereo partly shown) [ST0089]", "solubility at 30 min": 25.2}
{"smiles": "CC[C@@H]([C@H](C)OS(=O)(=O)[O-])n1ncn(-c2ccc(N3CCN(c4ccc(OC[C@@H]5CO[C@@](Cn6cncn6)(c6ccc(F)cc6F)C5)cc4)CC3)cc2)c1=O.[Na+]", "note": "[ST0095]", "solubility at 30 min": "> 50"}
{"experiment": "Determination of solubility in deionized water (HPLC, external standard)", "details": "25±2° C., after 30 min", "units": {"Solubility": "mg/mL"}}
{"smiles": "CC[C@@H]([C@H](C)OC(=O)OC(C)OC(=O)CN(C)P(=O)([O-])[O-])n1ncn(-c2ccc(N3CCN(c4ccc(OC[C@@H]5CO[C@@](Cn6cncn6)(c6ccc(F)cc6F)C5)cc4)CC3)cc2)c1=O.[Na+].[Na+]", "note": "(stereo partly shown) [ST0054]", "Solubility": 40.9}
{"experiment": "Solid stability test (stability chamber, HPLC total impurity)", "type": "physicochemical", "details": "solid, packaged, 25° C.±2° C., relative humidity 60%±2%", "units": {"Total impurity increment in 30 days": "%"}}
{"smiles": "CC[C@@H](C(C)OC(=O)OC(C)OC(=O)CN(C)C)n1ncn(-c2ccc(N3CCN(c4ccc(OC[C@@H]5CO[C@@](Cn6cncn6)(c6ccc(F)cc6F)C5)cc4)CC3)cc2)c1=O", "note": "(stereo partly shown) [Compound 0058]", "Total impurity increment in 30 days": 0.47}
{"smiles": "CC[C@@H]([C@H](C)O)n1ncn(-c2ccc(N3CCN(c4ccc(OC[C@@H]5CO[C@@](Cn6c[n+](CC(=O)[O-])cn6)(c6ccc(F)cc6F)C5)cc4)CC3)cc2)c1=O.[Cl-].[Na+]", "note": "[ST0021]", "Total impurity increment in 30 days": 0.97}
{"smiles": "CC[C@@H]([C@H](C)O)n1ncn(-c2ccc(N3CCN(c4ccc(OC[C@@H]5CO[C@@](Cn6c[n+](C(C)OC(=O)SCC(=O)[O-])cn6)(c6ccc(F)cc6F)C5)cc4)CC3)cc2)c1=O.[Cl-].[Na+]", "note": "(stereo partly shown) [ST0034]", "Total impurity increment in 30 days": 1.85}
{"smiles": "CC[C@@H]([C@H](C)O)n1ncn(-c2ccc(N3CCN(c4ccc(OC[C@@H]5CO[C@@](Cn6c[n+](C(C)OC(=O)OCCS)cn6)(c6ccc(F)cc6F)C5)cc4)CC3)cc2)c1=O", "note": "(stereo partly shown) [ST0036]", "Total impurity increment in 30 days": 0.87}
{"smiles": "CC[C@@H]([C@H](C)OC(=O)OC(C)OC(=O)CC(=O)[O-])n1ncn(-c2ccc(N3CCN(c4ccc(OC[C@@H]5CO[C@@](Cn6cncn6)(c6ccc(F)cc6F)C5)cc4)CC3)cc2)c1=O.[Na+]", "note": "(stereo partly shown) [ST0048]", "Total impurity increment in 30 days": 0.95}
{"smiles": "CC[C@@H]([C@H](C)O)n1ncn(-c2ccc(N3CCN(c4ccc(OC[C@@H]5CO[C@@](Cn6c[n+](C(C)OC(=O)N(C)c7ncccc7COC(=O)CN)cn6)(c6ccc(F)cc6F)C5)cc4)CC3)cc2)c1=O", "note": "(stereo partly shown) [ST0101]", "Total impurity increment in 30 days": 0.47}
{"smiles": "CC[C@@H]([C@H](C)O)n1ncn(-c2ccc(N3CCN(c4ccc(OC[C@@H]5CO[C@@](Cn6c[n+](C(C)OC(=O)N(C)c7ncccc7COC(=O)[C@@H](N)CCC(N)=O)cn6)(c6ccc(F)cc6F)C5)cc4)CC3)cc2)c1=O", "note": "(stereo partly shown) [ST0102]", "Total impurity increment in 30 days": 0.36}
{"smiles": "CC[C@@H]([C@H](C)O)n1ncn(-c2ccc(N3CCN(c4ccc(OC[C@@H]5CO[C@@](Cn6c[n+](C(C)OC(=O)N(C)c7ncccc7COC(=O)[C@@H](N)CC(N)=O)cn6)(c6ccc(F)cc6F)C5)cc4)CC3)cc2)c1=O", "note": "(stereo partly shown) [ST0103]", "Total impurity increment in 30 days": 0.29}
{"smiles": "CC[C@@H]([C@H](C)O)n1ncn(-c2ccc(N3CCN(c4ccc(OC[C@@H]5CO[C@@](Cn6c[n+](C(C)OC(=O)N(C)c7ncccc7COC(=O)[C@@H](N)CCCCN)cn6)(c6ccc(F)cc6F)C5)cc4)CC3)cc2)c1=O", "note": "(stereo partly shown) [ST0104]", "Total impurity increment in 30 days": 0.27}
{"smiles": "CC[C@@H]([C@H](C)O)n1ncn(-c2ccc(N3CCN(c4ccc(OC[C@@H]5CO[C@@](Cn6c[n+](C(C)OC(=O)N(C)c7ncccc7COC(=O)[C@@H](N)CO)cn6)(c6ccc(F)cc6F)C5)cc4)CC3)cc2)c1=O", "note": "(stereo partly shown) [ST0105]", "Total impurity increment in 30 days": 0.34}
{"smiles": "CC[C@@H]([C@H](C)O)n1ncn(-c2ccc(N3CCN(c4ccc(OC[C@@H]5CO[C@@](Cn6c[n+](C(C)OC(=O)N(C)c7ncccc7COC(=O)[C@@H](N)[C@@H](C)O)cn6)(c6ccc(F)cc6F)C5)cc4)CC3)cc2)c1=O", "note": "(stereo partly shown) [ST0106]", "Total impurity increment in 30 days": 0.32}
